This is an account of results in publication PMC7290235, “Regulation of Exopolysaccharide Production by ProE, a Cyclic-Di-GMP Phosphodiesterase in Pseudomonas aeruginosa PAO1” (Frontiers in Microbiology, 2020).

One experiment deals with T1, ProE (Pseudomonas aeruginosa, UniProt Q9HTQ9).
T1 construct: gene PA5295; coding region in pET28b(+) (BamHI/HindIII), His tag, Ni-NTA purified; GGDEF 113-282, EAL 292-538; tag removal not mentioned
Kind of experiment: HPLC of pGpG formation, […] nm. The experiment is classed as biochemical. As to conditions: 50 uM c-di-GMP, 0.08 uM enzyme, Tris-HCl pH 8.0, 20 mM KCl, 5 mM MgCl2, 37 C, 20 min.

For the next experiment, the target named is T2, WspR (Pseudomonas aeruginosa, UniProt Q9HXT9).
T2 construct: wspR in pET28b(+) (BamHI/HindIII), His tag, Ni-NTA purified; tag removal not mentioned
T2 sequence (Q9HXT9 entry or part of it): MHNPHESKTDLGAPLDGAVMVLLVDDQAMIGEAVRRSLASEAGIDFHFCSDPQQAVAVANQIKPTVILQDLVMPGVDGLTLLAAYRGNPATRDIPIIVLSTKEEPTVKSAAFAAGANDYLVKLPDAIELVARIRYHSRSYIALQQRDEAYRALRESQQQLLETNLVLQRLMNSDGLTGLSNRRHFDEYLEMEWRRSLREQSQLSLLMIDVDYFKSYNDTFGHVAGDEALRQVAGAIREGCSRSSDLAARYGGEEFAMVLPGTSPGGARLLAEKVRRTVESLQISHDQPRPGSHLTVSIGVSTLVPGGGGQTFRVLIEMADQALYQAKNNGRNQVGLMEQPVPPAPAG
Nature of the experiment: HPLC of c-di-GMP formation. The experiment is classed as biochemical. Particulars: 500 uM GTP, 5 uM enzyme, Tris-HCl pH 7.8, 250 mM NaCl, 25 mM KCl, 10 mM MgCl2, 37 C, 120 min.

T1 sequence (Q9HTQ9 entry or part of it): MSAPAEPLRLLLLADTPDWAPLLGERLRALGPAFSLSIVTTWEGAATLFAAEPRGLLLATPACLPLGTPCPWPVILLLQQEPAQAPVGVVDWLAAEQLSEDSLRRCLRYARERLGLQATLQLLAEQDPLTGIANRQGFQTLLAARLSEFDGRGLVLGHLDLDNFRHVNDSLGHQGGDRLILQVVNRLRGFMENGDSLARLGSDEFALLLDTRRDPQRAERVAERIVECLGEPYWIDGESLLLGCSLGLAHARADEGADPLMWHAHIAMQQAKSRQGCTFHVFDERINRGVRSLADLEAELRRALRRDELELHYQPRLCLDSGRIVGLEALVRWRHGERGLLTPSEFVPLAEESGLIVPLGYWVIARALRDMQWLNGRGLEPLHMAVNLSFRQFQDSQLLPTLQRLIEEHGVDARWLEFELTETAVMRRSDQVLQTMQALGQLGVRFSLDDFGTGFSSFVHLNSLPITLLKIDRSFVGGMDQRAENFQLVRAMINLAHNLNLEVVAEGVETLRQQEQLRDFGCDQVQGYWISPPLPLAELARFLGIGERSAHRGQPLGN

Consider `Nc1nc2c(ncn2[C@@H]2O[C@@H]3COP(=O)(O)O[C@H]4[C@@H](O)[C@H](n5cnc6c(=O)[nH]c(N)nc65)O[C@@H]4COP(=O)(O)O[C@H]3[C@H]2O)c(=O)[nH]1` [c-di-GMP], for which, at ProE, the “HPLC of pGpG formation, 254 nm” value was “HPLC analysis showed that the degradation product pGpG was produced”. Consider `Nc1nc2c(ncn2[C@@H]2O[C@H](COP(=O)(O)OP(=O)(O)OP(=O)(O)O)[C@@H](O)[C@H]2O)c(=O)[nH]1` [GTP], for which the “HPLC of c-di-GMP formation” value at WspR was “the control protein WspR could convert most GTP into c-di-GMP”.
